Reference: paper PMC11003925, “Antimicrobial activity and properties of de novo design of short synthetic lipopeptides” (Folia Microbiologica, 2024)
Converted amounts (≈) assume the structure as drawn. Like-named read-outs stand apart in the source and are kept apart here. Residues, ends and D or L forms follow the SMILES beside them. *: point of attachment. Lithocholoyl = C[C@H](CCC(=O)*)[C@H]1CC[C@H]2[C@@H]3CC[C@@H]4C[C@H](O)CC[C@]4(C)[C@H]3CC[C@]12C

Legend:
B. subtilis DBM 3006 = type: cell-based, Bacillus subtilis; settings: for MIC: DBM 3006, 24 h; for IC50: DBM 3006, 25 h
Procedure: (§1) A Bioscreen C automated microbiology growth curve analysis system (Growth Curves, Piscataway, NJ, USA) was used for the quantitative determination of antimicrobial activity (minimal inhibitory concentration, MIC) of PAL/LCA-peptides. Optical density was measured with a wide bandpass filter (wavelength range 420–580 nm) at regular intervals and temperatures. This assay was performed in a special microtiter plate (10 × 10 wells) that allowed the simultaneous testing of a large number of samples against several microorganisms. The total testing volume was 100 µL, obtained by mixing 10 µL of microbial culture with OD600 equal to 0.1 with growth medium and a solution of the tested compounds. The positive controls were vancomycin and tetracycline for Bacillus subtilis (100 µg/mL) for Gram-positive bacteria, kanamycin, and tetracycline for Acinetobacter baumannii (100 µg/mL) for Gram-negative bacteria, and clotrimazole or amphotericin (100 µg/mL) for fungi. The maximal concentration of tested lipoproteins was 1 mg/mL. A pure growth medium was used as the negative control. The measurement period was 25 h. The lowest concentration with a 100% inhibition effect for 24 h of incubation was chosen as the MIC. The antibacterial activity of each compound was expressed as the minimum inhibitory concentration MIC (MIC is the lowest concentration of the compound needed to inhibit the growth of bacterial cells) and IC50 (IC50 is the concentration of the compound needed to inhibit the growth of bacterial cells by 50%).

Staph. aureus = experiment: Transmission electron microscopy of treated bacteria; type: cell-based, Staphylococcus aureus; settings: 1 to 4 h incubation; media with (Mueller–Hinton broth 2) and without nutrients (potassium phosphate buffer)
Procedure: Pictures of damaged bacterial cells were obtained by transmission electron microscopy after 1 to 4 h of incubation. Cells of the Gram-positive bacterial strains were not stained. A JEOL JEM-1010 transmission electron microscope (JEOL, Tokyo, Japan) equipped with a MegaView III CCD camera was used for visualization, and evaluation was performed with the program for image analysis AnalySIS software v. 2.0 (Soft Imaging Systems). The samples were plated on a carbon-coated electron microscopic grid and observed with an accelerating voltage of 80 kV.

E. faecalis DBM 3075 = type: cell-based; settings: for IC50: DBM 3075, 25 h
Procedure: as §1

E. coli DBM 3001 = type: cell-based; settings: DBM 3001, 25 h
Procedure: as §1

bacterial membrane = experiment: Membrane disruption (released lactate dehydrogenase activity); type: cell-based, Staphylococcus aureus; settings: 1 h incubation at 37 °C, LDH kit, triplets
Procedure: The disruption of the microbial membrane was followed by the detection of lactate dehydrogenase activity released from the intracellular space using a Cytotoxicity Detection Kit (LDH) from Roche (Korzeniewski and Callewaert [1983]; Macurkova et al. [2014]) after 1 h incubation at 37 °C with the PAL/LCA-peptide. The culture supernatant was collected and incubated with the reaction mixture from the kit. In the first step, NAD^+ is reduced to NADH + H^+ by the LDH-catalyzed conversion of lactate to pyruvate. In the second step, the catalyst (diaphorase) transfers H/H^+ from NADH + H^+ to the tetrazolium salt 2-(4-iodophenyl)-3-(4-nitrophenyl)-5-phenyl-2H-tetrazolium chloride (INT), which is reduced to formazan. The formazan dye formed is red and water-soluble and gives a broad absorption maximum at 500 nm. An increase in the amount of dead or plasma membrane-damaged cells results in an increase in the LDH activity in the cell culture supernatant.
To determine the degree of damage to the cell membrane (%) by the tested substances, averages of absorbances (triplets) were calculated from the measured values for the samples, controls, and pure medium. Subsequently, the absorbance average for the clean medium (background) was subtracted from all averages obtained in this way. The degree of damage to the cell membrane by the tested substances was expressed as follows: membranedamage%=((AVZ-∅ANK)/(∅APK-ANK))∙100 ∅AVZ⋯averageabsorbanceofsample ∅ANK⋯averageabsorbanceofnegativecontrol ∅APK⋯averageabsorbanceofpositivecontrol

Staph. aureus MRSA1 [1] = type: cell-based, Staphylococcus aureus; settings: 2xMIC, 37 °C
Procedure: This assay was used to determine how quick the effect of PAL/LCA-peptides is on bacteria, as well as whether the activity of these compounds is dependent on the presence of active bacterial metabolism (Kamysz et al. [2007]). The bacterial cultures were incubated overnight at 37 °C in Mueller–Hinton’s broth 2 or potassium phosphate buffer (0.1 M, pH 7). Cultures were diluted to OD600 equal to 0.1 and divided into 2 samples, and the final volume of each sample was 1 mL; after that, they were centrifuged (5000 × g, 10 min) to collect bacteria. […] The samples were incubated at 37 °C. At specific time intervals, samples of bacterial suspension were taken, diluted, and spread on Petri dishes with Mueller–Hinton’s agar to count the number of surviving cells as colony-forming units (CFU). The whole experiment lasted 24 h.

Ps. aeruginosa DBM 3081 = type: cell-based, Pseudomonas aeruginosa; settings: 25 h
Procedure: as §1

M. luteus DBM 3053 = type: cell-based, Micrococcus luteus; settings: for MIC: DBM 3053, 24 h; for IC50: DBM 3053, 25 h
Procedure: as §1

C. tropicalis DBM 2166 = type: cell-based, Candida tropicalis; settings: for IC50: DBM 2166, 25 h; for MIC: first value of cell 'MIC / IC50', 100% inhibition for 24 h
Procedure: as §1

HepG2 = experiment: Cytotoxicity assay (xCELLigence impedance); type: cell-based, human; settings: for % inhibition: 24 h exposure
Procedure: (§2) Experiments were carried out using an xCELLigence RTCA DP Instrument (Roche Diagnostics GmbH, Mannheim, Germany) which was placed into an incubator (37 °C and 5% CO2). Cell proliferation and cytotoxicity experiments were performed using modified 16-well plates (E-plate, Roche Diagnostics GmbH, Mannheim, Germany). Microelectrodes were attached to the bottom of the wells for the impedance-based detection of attachment, spreading, and proliferation of the cells (Stoddart [2011]). This system monitors cellular events in real time without the incorporation of labels by measuring electrical impedance across an interdigitated microelectrode integrated into the bottom of this special tissue culture plate. This impedance measurement improves upon conventional endpoint assays and provides quantitative information about the biological status of the cells, including cell number, adhesion, viability, and morphology. Ninety microliters of cultivation medium was used for the blank sample, and subsequently, 100 µL of HepG2 or HEK293T cell suspension (7 × 10^5 cells/mL) was added and placed into the incubator (37 °C, 95% humidity, 5% CO2). […] Chrysophsin-3 at a concentration of 100 µg/mL was used as a positive control and solvent (deionized water) as a negative control. Subsequent incubation was performed for at least an additional 24 h. The result of the measurement was viability curves. After the measurement, percentages of tissue culture growth inhibition were calculated for all the tested substances, as follows: %inhibition=(1-(ΔϕCIsample)/(ΔϕCIcontrol))·100
(§3) Δ∅CIsample … the difference between the first and last average CI (cell index) values of the tissue culture in the presence of the tested sample.
(§4) Δ∅CIcontrol … the difference between the first and last average CI values of the tissue culture itself.

HEK293T = experiment: Cytotoxicity assay (xCELLigence impedance); type: cell-based, human; settings: 24 h exposure
Procedure: as §2, §3, §4

Staph. aureus DBM 3002 = type: cell-based, Staphylococcus aureus; settings: for MIC: 24 h; for IC50: 25 h
Procedure: as §1

Staph. aureus MRSA1 [2] = type: cell-based, Staphylococcus aureus; settings: for MIC: 24 h; for IC50: 25 h
Procedure: as §1

plasmid pGreen 0029 = experiment: DNA binding assay (gel retardation); settings: 50 ng DNA, 1 h room temperature, 1% agarose gel
Procedure: This assay was performed as described by Park et al. ([1998]), with a few modifications. […] The reaction mixture was incubated at room temperature for 1 h. Subsequently, 4 µL of native loading buffer (10% Ficol, 10 mM Tris–HCl (pH 7.5), 50 mM EDTA, 0.25% bromophenol blue) was added. An aliquot was applied to 1% agarose gel electrophoresis in 0.5xTris borate-EDTA buffer. Circular plasmid DNA was isolated from (Luria–Bertani medium with AMPI in final concentration 100 µg/mL) bacterial strain E. coli DH5α / pBluescriptII KS- that had been grown overnight, and linearization was performed overnight by enzymatic reaction using restriction endonuclease EcoRV at 37 °C. The evaluation was performed by visualizing the DNA with the intercalation dye Midori Green Advanced DNA Stain under UV light. Reduced electrophoretic mobility compared to the control is considered to be evidence of peptide binding to DNA.
According to the previous results, we decided to clarify one of the possible molecular interaction mechanisms, the ability of the studied lipopeptides to bind microbial plasmid DNA. Based on the assumption that pore formation is only one of the influencing factors, which arose from previous results, the effect on one of the possible intracellular targets, DNA, was determined. This determination was carried out on isolated plasmid DNA, specifically on two plasmids, pGreen 0029 and pBluescript II KS- in circular and linearized form.

A. baumannii DBM 3183 = experiment: microbe, parasite or virus in culture; type: cell-based, Acinetobacter baumannii; settings: DBM 3183, 25 h
Procedure: as §1

CC(C)C[C@H](NC(=O)CC[C@@H](C)[C@H]1CC[C@H]2[C@@H]3CC[C@@H]4C[C@H](O)CC[C@]4(C)[C@H]3CC[C@]12C)C(=O)N[C@H](C(=O)N[C@@H](CCCCN)C(=O)N[C@@H](CCCNC(=N)N)C(=O)N[C@@H](C)C(=O)NCC(N)=O)C(C)C [SHP-1.3, LCA-LVKRAG-NH2] (Lithocholoyl-LVKRAG-NH2)
MIC (B. subtilis DBM 3006): 31.5 µg/mL (≈ 31.5 µM) | IC50 (B. subtilis DBM 3006): 40.0 µg/mL (≈ 40 µM) | morphological effect on bacterial cells (TEM) (Staph. aureus): damaging cellular envelopes | MIC (E. faecalis DBM 3075; DBM 3075, 24 h): 71.5 µg/mL (≈ 71.5 µM) | IC50 (E. faecalis DBM 3075): 100.0 µg/mL (≈ 100 µM) | IC50 (E. coli DBM 3001): N / > 100.0 µg/mL | Membrane damage (%) (bacterial membrane; KP (potassium phosphate buffer)): 30 ± 5% | Membrane damage (%) (bacterial membrane; MHB (Mueller–Hinton broth II)): 0 ± 5% | bacteria killed within half an hour (Staph. aureus MRSA1 [1]; about 10^7 cells, SHP-1.2 only in medium with nutrients, SHP-1.3 in both media): 100% | killing activity (%) (Staph. aureus MRSA1 [1]; KP (potassium phosphate buffer, without nutrients)): 100 ± 18% | killing activity (%) (Staph. aureus MRSA1 [1]; MHB (Mueller–Hinton broth II, with nutrients)): 100 ± 12% | IC50 (Ps. aeruginosa DBM 3081): N / > 100.0 µg/mL | MIC (M. luteus DBM 3053): 5.5 µg/mL (≈ 5.5 µM) | IC50 (M. luteus DBM 3053): 10.0 µg/mL (≈ 10 µM) | IC50 (C. tropicalis DBM 2166): 30.0 µg/mL (≈ 30 µM) | MIC (C. tropicalis DBM 2166): 10.3 µg/mL (≈ 10.3 µM) | % inhibition (HepG2; c 50 µg/mL): 57.4 ± 8.6% | % inhibition (HepG2; c 100 µg/mL): 92.8 ± 13.9% | % inhibition (HepG2; c 200 µg/mL): 97.8 ± 14.7% | efficiency on HepG2 cells (HepG2; concentration not given): 97% | % inhibition (HEK293T; c 50 µg/mL): 63.8 ± 9.6% | % inhibition (HEK293T; c 100 µg/mL): 72.0 ± 10.8% | % inhibition (HEK293T; c 200 µg/mL): 84.1 ± 12.6% | MIC (Staph. aureus DBM 3002): 33.0 µg/mL (≈ 33 µM) | IC50 (Staph. aureus DBM 3002): 50.0 µg/mL (≈ 50 µM) | MIC (Staph. aureus MRSA1 [2]): 30.6 µg/mL (≈ 30.6 µM) | IC50 (Staph. aureus MRSA1 [2]): 50.0 µg/mL (≈ 50 µM)

CC(C)C[C@H](NC(=O)[C@@H](NC(=O)CNC(=O)CC[C@@H](C)[C@H]1CC[C@H]2[C@@H]3CC[C@@H]4C[C@H](O)CC[C@]4(C)[C@H]3CC[C@]12C)C(C)C)C(=O)N[C@@H](CCCCN)C(=O)N[C@@H](CCCNC(=N)N)C(=O)N[C@@H](C)C(N)=O [SHP-3.3, LCA-GVLKRA-NH2] (Lithocholoyl-GVLKRA-NH2)
MIC (B. subtilis DBM 3006): 34.3 µg/mL (≈ 34.3 µM) | IC50 (B. subtilis DBM 3006): 50.0 µg/mL (≈ 50 µM) | morphological effect on bacterial cells (TEM) (Staph. aureus): damaging cellular envelopes | IC50 (E. faecalis DBM 3075): N / > 100.0 µg/mL | IC50 (E. coli DBM 3001): N / > 100.0 µg/mL | weight ratio lipopeptide:DNA influencing electrophoretic mobility (plasmid pGreen 0029; circular plasmid): 1.0 | weight ratio lipopeptide:DNA influencing electrophoretic mobility (plasmid pGreen 0029; linearized plasmid): 10.0 | IC50 (Ps. aeruginosa DBM 3081): N / > 100.0 µg/mL | MIC (M. luteus DBM 3053): 1.5 µg/mL (≈ 1.5 µM) | IC50 (M. luteus DBM 3053): 5.0 µg/mL (≈ 5 µM) | IC50 (C. tropicalis DBM 2166): 30.0 µg/mL (≈ 30 µM) | MIC (C. tropicalis DBM 2166): 10.0 µg/mL (≈ 10 µM) | % inhibition (HepG2; c 50 µg/mL): 4.3 ± 0.6% | % inhibition (HepG2; c 100 µg/mL): 35.6 ± 5.3% | % inhibition (HEK293T; c 50 µg/mL): 7.8 ± 1.2% | % inhibition (HEK293T; c 100 µg/mL): 28.5 ± 4.3% | % inhibition (HEK293T; c 200 µg/mL): 88.2 ± 13.2% | MIC (Staph. aureus DBM 3002): 28.8 µg/mL (≈ 28.8 µM) | IC50 (Staph. aureus DBM 3002): 50.0 µg/mL (≈ 50 µM) | MIC (Staph. aureus MRSA1 [2]): 25.2 µg/mL (≈ 25.2 µM) | IC50 (Staph. aureus MRSA1 [2]): 50.0 µg/mL (≈ 50 µM) | IC50 (A. baumannii DBM 3183): N / > 100.0 µg/mL
